Measured values: ChEMBL document CHEMBL1201862, “PubChem BioAssay data set” (2004)
Calls of active or inactive are those of the source.

How the values were obtained:
[1] = target: T1, Endoribonuclease toxin MazF (Escherichia coli K-12, UniProt P0AE70); test: MazF toxin RNase activators, dose response, biochemical, fluorescence, single-stranded RNA substrate, uHTS hits (AID 588481); format: functional
T1 sequence (P0AE70 whole entry): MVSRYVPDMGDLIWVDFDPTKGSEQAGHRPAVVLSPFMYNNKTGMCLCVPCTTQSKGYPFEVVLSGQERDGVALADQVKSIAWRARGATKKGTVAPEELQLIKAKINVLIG

[2] = target: T1, Endoribonuclease toxin MazF; test: MazF endoribonuclease activators, SAR follow-up, biochemical, fluorescence, single-stranded RNA substrate (AID 588603); format: functional
[3] = target: T1, Endoribonuclease toxin MazF; test: fluorescent RNA oligo signal without MazF, dose response, counter-screen for MazEF activator project, biochemical, fluorescence, single-stranded RNase substrate (AID 588502); format: functional
[4] = target: T1, Endoribonuclease toxin MazF; test: SAR analysis of small molecule activators of the MazEF TA System via a fluorescence-based single-stranded RNase assay counterscreen. [Related pubchem assays (depositor defined):AID504720, AID504743]; format: functional
MEF = test: SAR analysis of small molecule cytotoxicity of MazEF TA System activators in embryonic fibroblast (MEF) cells. [Related pubchem assays (depositor defined):AID504720, AID504743]; format: functional; settings: Mus musculus
[5] = target: Eukaryotic translation initiation factor 4E (Mus musculus, UniProt P63073); test: eIF4E–eIF4G protein interaction inhibitors, dose response, biochemical, TR-FRET (AID 855); format: functional;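 further: potency for disrupting eIF4E binding to eIF4GI seen as loss of FRET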
Chain of Eukaryotic translation initiation factor 4E (P63073 whole entry): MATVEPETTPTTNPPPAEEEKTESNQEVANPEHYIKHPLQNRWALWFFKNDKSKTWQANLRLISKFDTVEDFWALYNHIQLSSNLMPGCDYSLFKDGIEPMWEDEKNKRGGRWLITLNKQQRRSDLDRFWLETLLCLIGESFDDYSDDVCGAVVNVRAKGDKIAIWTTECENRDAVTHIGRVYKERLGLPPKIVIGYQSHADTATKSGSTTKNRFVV

[6] = C. albicans growth with fluconazole, confirmation, fluorescence, retest (AID 2467); format: functional, cell-based
HEK293 [7] = test: inhibitors of LMP1-driven NF-kB reporter, dose response, cell-based, HEK293, luciferase, cherry-pick (AID 588343); format: functional; settings: Homo sapiens
[8] = NIH-3T3 fibroblast cytotoxicity, dose response, cytotoxicity control, cell-based, fluorescence, Alamar Blue, secondary assay (AID 2327); format: functional;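 further: NIH-3T3 mouse fibroblasts cultured with fluconazole at 8 µg/mL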
[9] = target: Latent membrane protein 1 (Human herpesvirus 4 (strain B95-8), UniProt P03230); test: TES1-eGFP NF-kB reporter inhibition versus Tet-On dsRED, dose response, selectivity assay for LMP1 NF-kB inhibitor project, imaging, HEK293T, dual-color eGFP/dsRED, cherry-picks (AID 588398); format: functional, cell-based
Chain of Latent membrane protein 1 (P03230 whole entry): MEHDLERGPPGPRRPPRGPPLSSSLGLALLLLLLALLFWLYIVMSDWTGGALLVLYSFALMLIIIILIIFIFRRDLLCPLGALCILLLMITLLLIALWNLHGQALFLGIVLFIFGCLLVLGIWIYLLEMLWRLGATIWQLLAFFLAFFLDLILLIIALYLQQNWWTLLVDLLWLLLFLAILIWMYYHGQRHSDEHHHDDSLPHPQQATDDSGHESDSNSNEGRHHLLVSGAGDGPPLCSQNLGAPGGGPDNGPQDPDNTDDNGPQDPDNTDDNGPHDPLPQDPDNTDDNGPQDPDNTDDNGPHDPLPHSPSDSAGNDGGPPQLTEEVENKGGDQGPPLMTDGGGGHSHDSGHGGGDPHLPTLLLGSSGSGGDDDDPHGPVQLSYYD

HEK293 [10] = test: cytotoxicity in HEK293T NF-kB-Luc cells, SAR follow-up, cytotoxicity control for NF-kB activator project, cell-based, resazurin fluorescence (AID 493251); format: functional; settings: Homo sapiens
HEK293 [11] = test: SAR Analysis of small molecule inhibitors of T-cell specific antigen receptor-induced NF-kB activation in a HEK-293T cell line using a luminescence assay - Set 2. [Related pubchem assays (depositor defined):AID435003, AID435012, AID489026]; format: functional, cell-based; settings: Homo sapiens
[12] = HepG2 cell cytotoxicity, dose response, cytotoxicity control for Shn3 inhibitor project, CellTiter-Glo, cherry-picked (AID 624134); format: functional, cell-based
[13] = control 3'UTR Renilla luciferase suppression, dose response, counter-screen for Shn3 inhibitor project, cell-based, Clone20-Shn3RL, cherry-picked (AID 624133); format: functional
[14] = Shn3 3'UTR reporter inhibitors, dose response, cell-based, Clone20 osteoblasts, firefly luciferase, cherry-picked (AID 624132); format: functional;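 further: firefly luciferase luminescence from reporter carrying the Shn3 3'UTR in osteoblasts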
Jurkat = test: SAR Analysis of small molecule inhibitors of T-cell specific antigen receptor-induced NF-kB activation in a Jurkat cell line using a luminescence assay - Set 2. [Related pubchem assays (depositor defined):AID435003, AID435012, AID465]; format: functional, cell-based; settings: Homo sapiens
[15] = target: Lysine-specific demethylase 4C (Homo sapiens, UniProt Q9H3R0); test: GASC-1 (JMJD2C) histone demethylase inhibitors, dose response, biochemical, DELFIA europium, cherry-picked samples (AID 488835); format: functional
Chain of Lysine-specific demethylase 4C (Q9H3R0 whole entry): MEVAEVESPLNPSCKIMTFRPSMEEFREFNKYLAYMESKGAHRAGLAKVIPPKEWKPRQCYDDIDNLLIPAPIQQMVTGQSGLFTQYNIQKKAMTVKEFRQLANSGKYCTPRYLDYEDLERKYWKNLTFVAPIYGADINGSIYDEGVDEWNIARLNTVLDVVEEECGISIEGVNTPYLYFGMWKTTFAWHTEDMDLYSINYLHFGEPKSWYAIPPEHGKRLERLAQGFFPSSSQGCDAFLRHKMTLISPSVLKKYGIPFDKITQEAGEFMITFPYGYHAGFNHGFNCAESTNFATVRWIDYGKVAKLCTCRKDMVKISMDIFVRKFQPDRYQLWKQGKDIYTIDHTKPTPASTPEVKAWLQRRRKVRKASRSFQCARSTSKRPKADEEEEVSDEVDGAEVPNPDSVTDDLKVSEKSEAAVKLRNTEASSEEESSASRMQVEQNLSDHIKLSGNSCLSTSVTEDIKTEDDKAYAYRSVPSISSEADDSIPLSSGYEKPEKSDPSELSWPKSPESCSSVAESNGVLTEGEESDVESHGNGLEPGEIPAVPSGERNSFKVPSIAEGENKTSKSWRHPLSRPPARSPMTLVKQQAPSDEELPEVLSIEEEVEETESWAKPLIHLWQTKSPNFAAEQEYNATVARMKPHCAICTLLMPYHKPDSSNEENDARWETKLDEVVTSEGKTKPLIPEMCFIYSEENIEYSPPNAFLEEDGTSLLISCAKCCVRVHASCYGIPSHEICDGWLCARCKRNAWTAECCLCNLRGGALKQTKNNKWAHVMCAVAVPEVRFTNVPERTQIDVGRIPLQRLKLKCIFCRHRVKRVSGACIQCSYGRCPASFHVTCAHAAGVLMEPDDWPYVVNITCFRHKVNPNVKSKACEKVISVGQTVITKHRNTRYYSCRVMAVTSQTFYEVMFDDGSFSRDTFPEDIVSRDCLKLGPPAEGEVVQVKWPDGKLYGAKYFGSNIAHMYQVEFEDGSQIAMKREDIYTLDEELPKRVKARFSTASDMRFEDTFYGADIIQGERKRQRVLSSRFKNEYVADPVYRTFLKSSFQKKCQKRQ

Beta-galactosidase = Beta-galactosidase (Escherichia coli, UniProt Q8VNN2); test: PubChem AID 485352; format: functional
Chain of Beta-galactosidase (Q8VNN2 whole entry): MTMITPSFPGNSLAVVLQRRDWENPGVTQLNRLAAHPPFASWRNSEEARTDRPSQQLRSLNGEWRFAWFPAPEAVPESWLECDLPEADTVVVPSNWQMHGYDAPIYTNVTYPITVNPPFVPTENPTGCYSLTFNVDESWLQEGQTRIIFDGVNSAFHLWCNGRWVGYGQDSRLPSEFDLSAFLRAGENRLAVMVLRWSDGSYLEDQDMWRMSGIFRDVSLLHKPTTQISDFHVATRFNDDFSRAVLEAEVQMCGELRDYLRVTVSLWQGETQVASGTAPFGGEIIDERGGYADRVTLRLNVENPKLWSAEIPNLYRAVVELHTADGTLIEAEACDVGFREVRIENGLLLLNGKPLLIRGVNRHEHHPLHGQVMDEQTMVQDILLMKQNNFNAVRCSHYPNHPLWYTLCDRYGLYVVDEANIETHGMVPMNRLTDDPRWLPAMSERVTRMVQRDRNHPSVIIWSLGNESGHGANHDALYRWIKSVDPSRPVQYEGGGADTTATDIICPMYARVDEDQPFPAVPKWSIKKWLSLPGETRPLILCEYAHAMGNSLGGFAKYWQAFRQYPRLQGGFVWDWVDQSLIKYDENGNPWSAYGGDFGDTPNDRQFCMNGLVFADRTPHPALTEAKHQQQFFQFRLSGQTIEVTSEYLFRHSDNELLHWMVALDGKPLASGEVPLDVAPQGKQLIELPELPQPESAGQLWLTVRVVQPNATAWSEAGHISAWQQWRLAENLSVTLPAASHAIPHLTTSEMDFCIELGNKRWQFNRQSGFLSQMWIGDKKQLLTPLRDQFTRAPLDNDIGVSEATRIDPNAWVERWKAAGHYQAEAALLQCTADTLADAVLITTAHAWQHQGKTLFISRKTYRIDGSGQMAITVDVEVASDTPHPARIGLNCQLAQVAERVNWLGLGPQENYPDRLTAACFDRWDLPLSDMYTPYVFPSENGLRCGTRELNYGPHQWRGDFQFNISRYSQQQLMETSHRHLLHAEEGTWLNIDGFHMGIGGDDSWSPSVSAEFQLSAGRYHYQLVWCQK

[16] = target: T2, Type-1 angiotensin II receptor (Homo sapiens, UniProt P30556); test: AT1 receptor antagonists, dose response, selectivity assay for APJ receptor antagonist project, cell-based, uHTS hits (AID 463214); format: functional;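 further: antagonist potency against angiotensin II stimulated AT1 response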
T2 sequence (P30556 whole entry): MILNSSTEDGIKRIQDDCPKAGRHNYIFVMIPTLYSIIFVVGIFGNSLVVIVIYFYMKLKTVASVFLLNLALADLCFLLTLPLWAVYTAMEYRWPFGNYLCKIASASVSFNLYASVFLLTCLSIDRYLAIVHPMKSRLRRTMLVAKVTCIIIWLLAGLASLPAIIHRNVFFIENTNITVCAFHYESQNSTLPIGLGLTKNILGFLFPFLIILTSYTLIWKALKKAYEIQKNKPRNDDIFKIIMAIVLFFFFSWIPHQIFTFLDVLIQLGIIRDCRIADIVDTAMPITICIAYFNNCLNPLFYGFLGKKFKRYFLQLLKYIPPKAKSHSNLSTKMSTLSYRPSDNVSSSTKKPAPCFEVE

[17] = target: T3, Histone-lysine N-methyltransferase NSD2 (Homo sapiens, UniProt O96028); format: biochemical
T3 sequence (O96028 whole entry): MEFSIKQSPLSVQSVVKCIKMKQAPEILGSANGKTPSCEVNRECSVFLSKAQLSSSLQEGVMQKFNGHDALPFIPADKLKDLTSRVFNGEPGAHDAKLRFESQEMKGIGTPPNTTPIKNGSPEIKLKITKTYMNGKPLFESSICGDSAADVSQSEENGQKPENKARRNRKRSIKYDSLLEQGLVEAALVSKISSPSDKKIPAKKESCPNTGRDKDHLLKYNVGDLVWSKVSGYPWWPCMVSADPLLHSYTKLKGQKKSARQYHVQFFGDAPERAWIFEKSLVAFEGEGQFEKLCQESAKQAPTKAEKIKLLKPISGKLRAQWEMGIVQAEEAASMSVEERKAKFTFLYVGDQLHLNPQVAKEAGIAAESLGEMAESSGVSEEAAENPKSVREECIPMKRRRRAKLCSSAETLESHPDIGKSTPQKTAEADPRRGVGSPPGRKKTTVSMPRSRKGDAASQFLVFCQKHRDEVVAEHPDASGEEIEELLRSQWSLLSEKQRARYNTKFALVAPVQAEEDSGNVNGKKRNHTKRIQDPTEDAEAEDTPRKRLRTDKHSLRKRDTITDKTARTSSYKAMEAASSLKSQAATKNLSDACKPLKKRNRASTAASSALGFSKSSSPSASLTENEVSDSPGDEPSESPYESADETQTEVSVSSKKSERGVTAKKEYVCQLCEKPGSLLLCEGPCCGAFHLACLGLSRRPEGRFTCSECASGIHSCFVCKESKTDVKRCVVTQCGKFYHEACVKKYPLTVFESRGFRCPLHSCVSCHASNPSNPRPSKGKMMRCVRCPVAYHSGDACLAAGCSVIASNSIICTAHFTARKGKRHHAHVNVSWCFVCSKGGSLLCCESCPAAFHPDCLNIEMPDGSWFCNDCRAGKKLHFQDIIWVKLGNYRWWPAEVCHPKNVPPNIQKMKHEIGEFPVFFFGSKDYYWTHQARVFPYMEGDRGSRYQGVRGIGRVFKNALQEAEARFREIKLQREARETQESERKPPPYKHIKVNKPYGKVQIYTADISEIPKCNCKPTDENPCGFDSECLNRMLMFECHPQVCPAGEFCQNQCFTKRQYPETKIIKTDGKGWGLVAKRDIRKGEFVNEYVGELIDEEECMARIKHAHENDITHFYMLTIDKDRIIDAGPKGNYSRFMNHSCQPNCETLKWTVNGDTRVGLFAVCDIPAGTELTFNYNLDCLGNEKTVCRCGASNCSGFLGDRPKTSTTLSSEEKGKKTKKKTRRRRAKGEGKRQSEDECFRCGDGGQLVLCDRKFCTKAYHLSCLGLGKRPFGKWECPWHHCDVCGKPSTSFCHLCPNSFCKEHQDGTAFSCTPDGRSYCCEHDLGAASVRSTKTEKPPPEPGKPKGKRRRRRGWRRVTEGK

[18] = target: T4, Apoptotic protease-activating factor 1 (Homo sapiens, UniProt O14727); format: functional
T4 sequence (O14727 whole entry): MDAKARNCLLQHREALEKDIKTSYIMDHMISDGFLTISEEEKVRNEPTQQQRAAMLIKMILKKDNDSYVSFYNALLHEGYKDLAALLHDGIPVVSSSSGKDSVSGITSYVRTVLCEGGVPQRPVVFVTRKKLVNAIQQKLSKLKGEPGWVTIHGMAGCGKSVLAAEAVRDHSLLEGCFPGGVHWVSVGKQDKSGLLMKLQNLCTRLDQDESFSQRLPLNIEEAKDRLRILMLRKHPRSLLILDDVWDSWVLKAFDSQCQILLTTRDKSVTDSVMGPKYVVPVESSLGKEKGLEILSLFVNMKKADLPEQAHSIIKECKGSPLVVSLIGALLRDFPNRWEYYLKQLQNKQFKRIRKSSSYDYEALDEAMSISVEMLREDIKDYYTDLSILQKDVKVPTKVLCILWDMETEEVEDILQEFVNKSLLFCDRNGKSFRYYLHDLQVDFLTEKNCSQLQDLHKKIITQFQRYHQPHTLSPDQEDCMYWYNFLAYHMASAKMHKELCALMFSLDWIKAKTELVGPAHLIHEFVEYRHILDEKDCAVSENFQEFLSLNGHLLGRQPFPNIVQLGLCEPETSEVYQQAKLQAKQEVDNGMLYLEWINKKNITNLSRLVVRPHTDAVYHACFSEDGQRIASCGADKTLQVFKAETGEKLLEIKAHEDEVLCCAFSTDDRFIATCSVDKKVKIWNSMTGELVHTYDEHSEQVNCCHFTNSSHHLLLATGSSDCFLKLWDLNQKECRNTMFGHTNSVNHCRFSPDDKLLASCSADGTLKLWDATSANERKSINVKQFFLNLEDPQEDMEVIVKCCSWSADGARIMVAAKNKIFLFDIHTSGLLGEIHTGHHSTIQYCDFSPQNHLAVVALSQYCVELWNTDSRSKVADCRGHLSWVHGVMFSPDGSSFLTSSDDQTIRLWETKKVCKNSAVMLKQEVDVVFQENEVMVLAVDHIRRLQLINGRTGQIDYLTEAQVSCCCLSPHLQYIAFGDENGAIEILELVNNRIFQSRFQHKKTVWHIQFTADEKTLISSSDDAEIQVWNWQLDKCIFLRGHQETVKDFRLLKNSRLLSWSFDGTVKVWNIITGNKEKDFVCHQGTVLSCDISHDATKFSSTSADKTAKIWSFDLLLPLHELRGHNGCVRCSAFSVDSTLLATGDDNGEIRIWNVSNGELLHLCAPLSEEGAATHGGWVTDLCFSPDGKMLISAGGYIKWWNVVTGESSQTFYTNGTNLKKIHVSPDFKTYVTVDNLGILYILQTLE

[19] = target: T5, Microphthalmia-associated transcription factor (Homo sapiens, UniProt O75030); test: TRPM1 promoter luciferase signal decrease, dose response, MITF inhibitor project, cell-based, SK-MEL-5, cherry-picked, set 3 (AID 493073); format: functional
T5 sequence (O75030 whole entry): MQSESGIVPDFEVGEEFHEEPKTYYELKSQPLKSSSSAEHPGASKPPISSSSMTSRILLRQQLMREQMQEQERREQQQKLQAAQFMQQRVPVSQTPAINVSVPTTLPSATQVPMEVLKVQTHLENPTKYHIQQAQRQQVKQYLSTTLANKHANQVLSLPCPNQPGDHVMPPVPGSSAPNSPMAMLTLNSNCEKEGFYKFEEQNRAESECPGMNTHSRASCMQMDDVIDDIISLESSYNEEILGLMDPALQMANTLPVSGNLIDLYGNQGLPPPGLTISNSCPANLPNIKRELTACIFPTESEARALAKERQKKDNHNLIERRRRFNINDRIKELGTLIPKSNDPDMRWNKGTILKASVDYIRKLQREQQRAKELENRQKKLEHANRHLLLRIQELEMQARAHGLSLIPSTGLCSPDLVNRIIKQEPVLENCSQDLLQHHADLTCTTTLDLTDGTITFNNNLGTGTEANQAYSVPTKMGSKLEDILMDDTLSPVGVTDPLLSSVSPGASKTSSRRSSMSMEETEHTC

SMILES | EC50 [1] | EC50 [2] | EC50 [3] | EC50 [4] | CC50 (MEF) | AC50 (HEK293 [7]) | AC50 [9] | IC50 [18] | also measured
N#Cc1cc2ccccc2nc1SCC(=O)Nc1ccccc1N1CCOCC1 | 17.5 µM (active) | 5.15 µM (active) | > 99 µM (inactive) | > 99 µM (inactive) | > 99 µM (inactive) |  |  |  | 
Cn1cccc1-c1cc(C(=O)N2CCc3c([nH]c4ccccc34)C2c2ccccn2)[nH]n1 (stereo not given) |  |  |  |  |  | 25.8 µM (active) | 21.6 µM (active) |  | IC50 [5]: 50 µM (inactive); EC50 [6]: 2.76 µM (active); EC50 [8]: 21.3 µM (active)
CCCCC(=O)NC(c1ccc(OC)cc1)c1ccc2cccnc2c1O (stereo not given) |  |  |  |  |  | 15.8 µM (active) | 11.6 µM (active) |  | IC50 (HEK293 [10]): 21.7 µM (inactive); IC50 (HEK293 [11]): 5.25 µM (active); AC50 [12]: 5.14 µM (active); AC50 [13]: 8.8 µM (active); AC50 [14]: 2.28 µM (active); IC50 (Jurkat): 3.22 µM (active)
C=CCN(CC=C)Cc1c(O)ccc2c1oc(=O)c1ccccc12 |  |  |  |  |  |  |  | 60.3 µM (active) | AC50 [15]: 0.48 µM (active); EC50 (Beta-galactosidase): > 40 µM (inactive); IC50 [16]: > 40 µM (not active); AC50 [17]: 4.02 µM (active)
COc1cc(C(=O)Oc2cc(N)n(S(=O)(=O)c3ccc(F)cc3)n2)cc(OC)c1OC | 14.8 µM (active) | 3.48 µM (active) | > 99 µM (inactive) | > 99 µM (inactive) | 85.3 µM (active) |  |  |  | 
NC(=O)C1CCN(C2=C(NS(=O)(=O)c3ccc(Br)cc3)C(=O)c3ccccc3C2=O)CC1 |  |  |  |  |  |  |  | 16.9 µM (active) | AC50 [19]: 11.9 µM (active)
